These results are taken from patent publication US9510589B2, “Use and agrochemical composition of carboxylic acid dibutylamides” (priority 2011, dated 2016).

The subject of series [1] is enzymatically isolated cuticles of apple tree leaves. The experiment in a line: Penetration test, epoxiconazole (Example 11). The format is in vitro ADME, apple trees of the Golden Delicious variety. Particulars: without N,N-dibutylcarboxamide, 0.3 g/l epoxiconazole in acetone/water, 20° C., 60% relative air humidity.
Procedure: (§1) In this test, the penetration of active ingredients though enzymatically isolated cuticles of apple tree leaves was measured. Leaves which had been cut off in the fully developed state from apple trees of the Golden Delicious variety were used.
(§2) Thereafter, only the cuticles of the upper leaf sides which were free of stomata and hairs were used in the further procedure. They were repeatedly washed alternately with water and a buffer solution of pH 7. The clean cuticles obtained were finally applied to Teflon sheets and smoothed and dried with a gentle air stream.
(§3) In the next step, the cuticular membranes thus obtained were placed into stainless steel diffusion cells (=transport chambers) for membrane transport studies. For this purpose, the cuticles were positioned using tweezers centrally onto the edges of the diffusion cells which had been smeared with silicone grease and sealed with a ring which had likewise been greased. The arrangement was selected such that the morphological outer side of the cuticles was directed outward, i.e. toward the air, while the original inner side faced the interior of the diffusion cell. […]
(§4) To determine the penetration, 10 μl in each case of a spray liquor of the composition specified in the examples were applied to the outer side of a cuticle. […] The active ingredient penetration was measured by means of HPLC or radiolabeled active ingredient.
Series [2] has the same test system. Kind of series: Penetration test, prothioconazole in acetone/water (Example 15). In kind it is in vitro ADME, apple trees of the Golden Delicious variety. Particulars: without N,N-dibutylcarboxamide, 0.3 g/l prothioconazole in acetone/water, 25° C., 60% relative air humidity.
Procedure: as §1, §2, §3, §4
The test system is the same in series [3]. Kind of series: Penetration test, prothioconazole with dimethyl amide plus dibutyl amides (Example 17). In kind it is in vitro ADME, apple trees of the Golden Delicious variety. The settings on record: no N,N-dibutylcarboxamide, 0.8 g/l prothioconazole in acetone/water with 1.5 g/l N,N-dimethyl-C8-C10-carboxamide and 0.4 g/l tristyrylphenol ethoxylate, n = 21, 20° C., 60% relative air humidity.
Procedure: as §1, §2, §3, §4

For series [4] the test system is unchanged. Kind of series: Penetration test, propiconazole (Example 12). The format is in vitro ADME, apple trees of the Golden Delicious variety. Particulars: without N,N-dibutylcarboxamide, 0.3 g/l propiconazole in acetone/water, 20° C., 60% relative air humidity.
Procedure: as §1, §2, §3, §4
Series [5] shares this test system. The experiment in a line: Penetration test, bromoxynil, dimethyl vs dibutyl amides (Example 6). The format is in vitro ADME, apple trees of the Golden Delicious variety. Particulars: no N,N-dialkylcarboxamide, 0.5 g/l castor oil ethoxylate emulsifier only, 1.5 g/l bromoxynil in acetone/water, 20° C., 60% relative air humidity.
Procedure: as §1, §2, §3, §4
The test system is the same in series [6]. The experiment in a line: Penetration test, kresoxim-methyl (Example 9). Particulars: without N,N-dibutylcarboxamide, 0.3 g/l kresoxim-methyl in acetone/water, 20° C., 60% relative air humidity.
Procedure: as §1, §2, §3, §4
For series [7] the test system is unchanged. The experiment in a line: Penetration test, isopyrazam (Example 13). The format is in vitro ADME, apple trees of the Golden Delicious variety. Particulars: without N,N-dibutylcarboxamide, 0.3 g/l isopyrazam in acetone/water, 20° C., 60% relative air humidity.
Procedure: as §1, §2, §3, §4
Series [8] relates to isolated apple leaf cuticles. The experiment in a line: Penetration test, fluopyram EC (Example 21). In kind it is in vitro ADME, apple trees of the Golden Delicious variety. Particulars: no carboxamide, 0.5 g/l fluopyram, 0.5 g/l emulsifier, 2% by weight solvent, 25° C., 60% relative air humidity. The method, then:
The active ingredient fluopyram was made up as an EC formulation in the laboratory: fluopyram is dissolved in a preliminary mixture of solvent and emulsifier (dimethylacetamide+Tanemul PS16) and diluted with water to give the ready-to-use test solution. The test solution contains 0.5 g/l active ingredient, 0.5 g/l emulsifier and 2% by weight of solvent.

The test system of series [9] is enzymatically isolated cuticles of apple tree leaves. Kind of series: Penetration test, azoxystrobin (Example 10). In kind it is in vitro ADME, apple trees of the Golden Delicious variety. The settings on record: without N,N-dibutylcarboxamide, 0.3 g/l azoxystrobin in acetone/water, 20° C., 60% relative air humidity.
Procedure: as §1, §2, §3, §4
The test system is the same in series [10]. Kind of series: Penetration test, spirotetramat in acetone/water (Example 7). In kind it is in vitro ADME, apple trees of the Golden Delicious variety. The settings on record: without N,N-dibutylcarboxamide, 0.3 g/l spirotetramat in acetone/water, 20° C., 60% relative air humidity.
Procedure: as §1, §2, §3, §4

With `Fc1ccc([C@]2(Cn3cncn3)O[C@H]2c2ccccc2Cl)cc1` (racemic) [epoxiconazole], the “Mean penetration of epoxiconazole in % 3 h” value in [1] (3 h) was determined as 1%. Besides, the “Mean penetration of epoxiconazole in % 24 h” value in series [1] (24 h) came to 2%.
Turning to `OC(Cc1ccccc1Cl)(Cn1nc[nH]c1=S)C1(Cl)CC1` (centres unmarked) [prothioconazole], the “Mean penetration of prothioconazole in % 3 h” value in series [2] (3 h) is 1%; in series [3] (3 h), 1.3 (n = 21) %. In addition, the entries for the “Mean penetration of prothioconazole in % 24 h” value in series [2] (24 h) and in series [3] (24 h) were 2% and 3.7 (n = 21) %, respectively.
Consider `CCCC1COC(Cn2cncn2)(c2ccc(Cl)cc2Cl)O1` (centres unmarked) [propiconazole], for which the “Mean penetration of propiconazole in % 3 h” value in [4] (3 h) is recorded as 4%. In [4] (24 h), the “Mean penetration of propiconazole in % 24 h” value is on record as 44%.
With `N#Cc1cc(Br)c(O)c(Br)c1` [bromoxynil], in series [5] (5 h), the “Mean penetration of bromoxynil in % 5 h” value is reported as 4%. The “Mean penetration of bromoxynil in % 24 h” value in series [5] (24 h) was 20%.
On to `CO/N=C(/C(=O)OC)c1ccccc1COc1ccccc1C` [kresoxim-methyl], for which the “Mean penetration of kresoxim-methyl in % 3 h” value in series [6] (3 h) came out at 1%. Besides, the “Mean penetration of kresoxim-methyl in % 24 h” value in series [6] (24 h) is 3%.
Turning to `CC(C)C1C2CCC1c1c(NC(=O)c3cn(C)nc3C(F)F)cccc12` (centres unmarked) [isopyrazam], the “Mean penetration of isopyrazam in % 3 h” value in series [7] (3 h) stood at 1%. In addition, the “Mean penetration of isopyrazam in % 24 h” value in series [7] (24 h) is 2%.
As for `O=C(NCCc1ncc(C(F)(F)F)cc1Cl)c1ccccc1C(F)(F)F` [fluopyram], in series [8] (6 h), the “Mean penetration of fluopyram in % 6 h” value was found to be 20%. Moreover, the “Mean penetration of fluopyram in % 24 h” value in [8] (24 h) is on record as 53%.
Consider `CO/C=C(/C(=O)OC)c1ccccc1Oc1cc(Oc2ccccc2C#N)ncn1` [azoxystrobin], for which the “Mean penetration of azoxystrobin in % 3 h” value in series [9] (3 h) was <1%. For the same molecule, the “Mean penetration of azoxystrobin in % 24 h” value in series [9] (24 h) is reported as 1%.
`CCOC(=O)OC1=C(c2cc(C)ccc2C)C(=O)N[C@]12CC[C@@H](OC)CC2` [spirotetramat]: the “Mean penetration of spirotetramat in % 3 h” value in [10] (3 h) worked out at 0%. Also, the “Mean penetration of spirotetramat in % 24 h” value in [10] (24 h) turned out to be 1%.
